“Also recorded” adds a separate entry of the source. Non-standard residues stand in square brackets, D forms with d. No end group written: not given here.

Here are results for 1 substance from US20190105369A1, “CD31SHED AGONISTS FOR USE IN THE PREVENTION AND/OR TREATMENT OF REPERFUSION INJURY” (INSTITUT NATIONAL DE LA SANTE ET DE LA RECHERCHE MEDICAL …, priority 2016, published 2019).

Test [1] concerns apolipoprotein E knockout mice. Description: Model of myocardial ischemia-reperfusion (coronary artery ligation 45 min, reperfusion 24 h). It is filed as in vivo. On the procedure: FIG. 2: Effect of P8RI (10 mg/Kg P8RI by subcutaneous injection, 2 minutes prior to reperfusion) on the area at risk and size of myocardial infarction in apolipoprotein E knockout mice (female, 18 week-old) subjected to 45 minutes of ischemia by ligation of the coronary artery, followed by 24 hours of reperfusion. […] P8RI: mice receiving P8RI (n=5); Control: mice receiving a similar volume of vehicle (PBS) without P8RI (n=5). T-Test.
In order to reproduce the ischemia-reperfusion injury in the setting of coronary atherosclerosis (as it occurs in patients) were used 18 week-old female apolipoprotein E knockout mice (N=12/group) which typically develop coronary atherosclerosis by the age of 16 week (Caligiuri et al., Atherosclerosis. 1999 August;145(2):301-8). Mice were subjected to surgical ligation of the left main coronary artery, according to the method described by Michael et al. (Am J Physiol. 1995 December;269(6 Pt 2):H2147-54). After 43 minutes of ischemia, the mice received either P8RI (10 mg/kg) or the vehicle (PBS) by subcutaneous injection and 2 minutes later the ischemic area was reperfused by reopening of the ligated coronary artery. The next day, the mice were re-anesthetized, the chest reopened and the coronary ligature re-tied; the coronary tree was then rinsed with 2 ml of PBS pushed in the coronary tree through retrograde cannulation of the left carotid artery and the non-ischemic area stained by the injection of 50 μl of evan's blue (3% in PBS) in the same cannula. The heart was then quickly removed from the chest and immersed in a saturated KCl solution (to stop the heart in diastole) and rinsed in PBS. […] Each slice was photographed and the area at risk (AAR, negatively stained by the evan's blue) and the necrotic area (MI, negatively stained in red by the TTC solution) were then measured by computer-assisted image analysis.
The AAR, expressed as % of the left ventricle (LV) surface and the necrotic area (MI, expressed as percentage of the AAR and of the LV) were calculated on each slice. The data shown in FIG. 2 are expressed as mean±SEM.

A further test concerns human platelet. The conditions noted are these: cited from earlier work.
For a further test, the system named is thrombin generation. The conditions noted are these: cited from earlier work.
The next test deals with Rats. Description: Model of mesenteric ischemia-reperfusion (mesenteric artery clamped 30 minutes, reperfusion 4 hours). It is filed as in vivo. On the procedure:
Rats are anesthetized by urethane I.P. A catheter is introduced in the right jugular vein for venous sampling, treatment administration, and solute perfusion (NaCl 0.9%, 10 μl/H/g b.w.) during all the experimental period. A catheter is introduced in the left internal carotid artery for arterial blood pressure monitoring and another one in the bladder for urine collection. […] The aortic ostium of the mesenteric artery is controlled. The intravenous administration of the peptide is initiated 5 minutes before clamping the mesenteric artery and after blood sampling (T0). Then, the mesenteric artery is clamped (total occlusion) for 30 minutes creating mesenteric ischemia. Blood sampling is performed at the end of the mesenteric ischemia period (T0.5). The mesenteric artery is then unclamped and reperfusion is follow-up to 4 hours. New blood samplings are performed each hour (T1.5, 2.5, 3.5, 4.5). The animal is sacrificed at the end of the experimental period after a last blood sampling. Urines are collected and diuresis measured each hour. At sacrifice, the ischemic intestine is sampled. One fragment is extruded in order to measure hemoglobin content. The other one is fixed in paraformaldehyde for histology. Several intermediary biological criteria are use in order to characterize the ischemia-reperfusion injury and to evaluate the beneficial effect of the CD31^shed agonist peptide: plasma and urinary free DNA (Picogreen fluorescent intercalant, Invitrogen), from neutrophil origin, traducing neutrophil activation and death, intra-intestinal lumen hemoglobin content (acid formic reaction, Calbiochem kit), traducing epithelial injury, Myeloperoxidase (MPO) content in the intestinal mucosa, reflecting the local accumulation and activation of neutrophils, plasma soluble p-selectin and MMP9 content, reflecting systemic neutrophil activation, as p-selectin is released by a cleavage from the surface of activated neutrophils (and platelets) and MMP9 is contained in the azurofilic granules of the neutrophils and is released early upon neutrophil degranulation. Finally, the extent of mucin film protection was evaluated by histology of the intestinal wall (Alcian blue staining).

The mark [2] stands for this setting: 10 mg/kg subcutaneous, 2 minutes prior to reperfusion, 24 hours of reperfusion, vs vehicle (PBS).
Setting [3] is: intravenous perfusion, vs controls.
Setting [4] is: mesenteric artery transient occlusion model.

Take “kwpalfvr ([dK][dW][dP][dA][dL][dF][dV][dR]) [Peptide P8RI, CD31shed agonist]”: in test [1] (setting [2]), the “size of myocardial infarction (MI) as percentage of the area at risk (AAR)” value is given as “significantly effective in reducing” and the “size of myocardial infarction (MI) as percentage of the left ventricle (LV)” value is on record as “significantly effective in reducing”. The “size of the necrotic areas” value in test [1] (administration during the ischemia-reperfusion period, vs non-treated control mouse) is on record as “strongly decrease”. In the test with human platelet, the human platelet aggregation result is given as “reduces”. In addition, the thrombin generation entry in the test on thrombin generation is “reduces”. Moreover, in the test with Rats (intravenous perfusion, at sacrifice, controls 317.1±93.27), the “hemoglobin content in the intestine lumen” value was 129.4±47.39 μg/mg prot. Moreover, the “epithelial villosity abrasion, epithelium desquamation” value in the test on Rats (intravenous perfusion, histology) is “protect”. Moreover, the “mucin / mucus film integrity (histology of the intestinal wall, Alcian blue staining)” value with Rats (intravenous perfusion, vs control rats, data not shown) is “histological conservation of mucus; also recorded: preserved most of the mucin film”. Besides, in the test on Rats (setting [3]), the “free hemoglobin within the intestinal lumen (ratio, normalized by total protein content)” value is given as “decreased”; the “free myeloperoxidase MPO in the intestinal mucosa (direct ELISA, optical density)” value is recorded as “decreased; also recorded: significantly decrease”; the “plasma MMP9, cumulative concentration (area under the curve of the different time points)” value is “decreased; also recorded: significantly decrease”. Moreover, the “free DNA in the plasma over time” value with Rats (intravenous, initiated 5 minutes before clamping, vs control rats) is “arrest of the progressive increase; also recorded: remains low and similar to sham-operated rats; also recorded: significantly reduces the progressive increase”. The “urinary free DNA” value in the test with Rats (intravenous, initiated 5 minutes before clamping, vs controls) is “reduced; also recorded: significantly reduces the progressive increase”. In the test on Rats (setting [4]), the “LPS secretion in blood” value is on record as “decrease”, the bacterial translocation result is reported as “prevented” and the intestinal necrosis entry is reported as “prevented”.
